Where no end group is shown, it is not given here.
System: tau protein
Experiment: Tau-1 and pan-Tau immunofluorescence in transfected postnatal sympathetic neurons
Type: cell-based, rat
Settings: compared to non-transfected neurons = 100%, two days after transfection
Experimental: Peripheral sympathetic neurons were obtained from postnatal day 1-3 rats. […] Following mechanical dissociation the cell suspension was filtered through a 40 μm nylon mesh and seeded at 6 SCGs per well into uncoated Falcon dishes for preplating purposes. After 4 hours neurons were transferred into glass floor dishes (Willco Wells B.V., gwst 3522, 3.8 cm^2 area/dish) coated with poly-D-lysine/laminin. Neurons were maintained in RPMI medium containing antibiotics, N2 additive (Invitrogen) and 100 ng/ml nerve growth factor (NGF; Sigma) at 37° C. in a humidified atmosphere with 5% CO2.
Neurons were transfected 2 hours after seeding applying the biolistic approach. This method uses a hand held gun to bombard dissociated neurons at high velocity with micron-size gold particles loaded with DNA. The coating of gold particles with DNA was achieved using a modification of the manufacturer's instructions (Bio-Rad Laboratories). For preparation of 35 cartridges 25 mg gold particles (1.6 μm diameter) were suspended in 50 μl of 0.05 M spermidine. After vortexing and sonication for 5 seconds, 50 μg plasmid DNA dissolved in 50 μl TE buffer was added (for co-transfection experiments, 80 μg were used, i.e., 40 μg Plasmid I+40 μg Plasmid 2). The amount of gold particles and DNA corresponds to a microcarrier loading quantity (MLQ) of about 0.7 (mg/cartridge) and to a DNA loading ratio (DLR) of 2 (μg/mg) for single transfection experiments. DNA, spermidine and gold were then mixed for 5 sec in a variable speed vortexer. At low vortexing speed, 50 μl 1 M CaCl2 was added dropwise to the mixture for association of DNA with the gold particles followed by precipitation for 10 min at room temperature. The supernatant was removed and the pellet rinsed with 800 μl of 100% ethanol. Washing was repeated two times with centrifugation steps at 3000 g between each wash. […]
A fully motorized Zeiss Axiovert 100M microscope equipped for inverted fluorescence was used for visualization of fluorescent neurons. […]

Substance: B-Box1: peptide derived from the MID1 domain that is responsible for α4 binding (amino acids 108-165), expressed from plasmid (ANTMTSAEKVLCQFCDQDPAQDAVKTCVTCEVSYCDECLKATHPNKKPFTGHRLIEPI; cysteine pairing not given here; also: myc tag; UniProt O15344 108-165, looked up, fragment)
- Tau-1 immunoreactivity (dephosphorylated tau) (listed as B-BOX1): significantly increased
- Tau-1 immunoreactivity (dephosphorylated tau) (listed as Bbox1): pronounced increase in fluorescence
